The record followed here is patent US11590116B2 (THERAVANCE BIOPHARMA R&D IP, LLC, priority 2019, dated 2023).

The test system of assay [1] is TGF-β-stimulated SMAD3 phosphorylation in BEAS-2B cells. The experiment in a line: Cellular ALK5 potency assay, inhibition of TGF-β stimulated pSMAD3 formation in BEAS-2B cells. In kind it is cell-based. The following applies: Homo sapiens, read-out: BEAS2B pIC50 (converted). The method in brief: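 BEAS-2B human lung epithelial cells pre-treated 1 h at 37° C with compound in HBSS/25 mM HEPES/1% BSA, then stimulated 30 min with 10 ng/mL TGF-β (final). Lysates assayed for pSMAD3 by AlphaLISA; pIC50 from dose-dependent change versus stimulated untreated cells.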

For assay [2], the target named is T1, recombinant human ALK5 (TGF-βR1) protein (Homo sapiens, UniProt P36897).
T1 construct: purchased Life Technologies PR9075A
T1 sequence (P36897 34-503): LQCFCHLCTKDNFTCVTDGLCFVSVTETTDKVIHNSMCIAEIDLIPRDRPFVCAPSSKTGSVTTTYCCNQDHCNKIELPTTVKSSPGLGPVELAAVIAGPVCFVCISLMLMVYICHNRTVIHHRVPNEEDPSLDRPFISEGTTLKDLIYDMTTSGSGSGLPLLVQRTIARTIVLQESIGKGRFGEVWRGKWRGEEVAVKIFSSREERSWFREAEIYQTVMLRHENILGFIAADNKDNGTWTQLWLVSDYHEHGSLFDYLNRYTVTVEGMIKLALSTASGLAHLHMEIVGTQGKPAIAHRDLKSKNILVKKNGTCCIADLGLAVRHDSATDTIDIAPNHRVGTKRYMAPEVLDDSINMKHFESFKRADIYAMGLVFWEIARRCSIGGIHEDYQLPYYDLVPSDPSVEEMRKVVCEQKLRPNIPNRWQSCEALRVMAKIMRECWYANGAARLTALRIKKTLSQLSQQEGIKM
The experiment in a line: Biochemical ALK5 (TGF-βR1) assay to measure pKi (LANCE Ultra ULight kinase assay). As to conditions: apparent pKi from pIC50 by Cheng-Prusoff, read-out: ALK5 pKi (converted). The method in brief:
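Compounds (10 μM to 25 pM) were preincubated 60 min at room temperature with enzyme, then reactions were started with ATP (125 μM stock, 5× final) and run 60 min at 37 °C. EDTA-containing Eu-anti-phospho-Topo IIα (Thr1342) antibody stopped the reaction; TR-FRET read at 665 nm. pIC50 from 4-parameter fit, converted to pKi via Cheng-Prusoff.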
Background: TR-FRET usually uses a lanthanide donor and a delayed reading to cut background.

[3] abbreviates: inhibition of TGF-β stimulated pSMAD3 formation, BEAS-2B cells.

Like-named read-outs stand apart in the source and are kept apart here. Where only a bound is given, the exact number is not on record here.

Turning to `Cc1cccc(-c2nc3ccccn3c2-c2ccc3ncc(N4CCC(N5CCN(C)CC5)CC4)cc3n2)n1` [Compound 326, 7-[4-(4-methylpiperazin-1-yl)-1-piperidyl]-2-[2-(6-methyl-2-pyridyl)imidazo[1,2-a]pyridin-3-yl]-1,5-naphthyridine], in assay [1] (setting [3]), the IC50 was 25.1 to 158 nM. Further, the Ki in assay [2] is 0.0398 to 0.316 nM.

Consider `Cc1cccc(-c2[nH]cnc2-c2ccc3nccc(C(=O)O)c3c2)n1` [Compound 1097, 6-[5-(6-methyl-2-pyridyl)-1H-imidazol-4-yl]quinoline-4-carboxylic acid], for which, in assay [1] (setting [3]), the IC50 is 200 to 1260 nM. Further, the Ki in assay [2] was 0.398 to 3.16 nM.

Take `COCC1CN(c2cnc3ccc(-c4c[nH]nc4-c4cccc(C)n4)nc3c2)CCN1` (racemic) [Compound 298, 2-[3-(6-methyl-2-pyridyl)-1H-pyrazol-4-yl]-7-[rac-(3R)-3-(methoxymethyl)piperazin-1-yl]-1,5-naphthyridine]: the IC50 in assay [1] (setting [3]) was 25.1 to 158 nM. Besides, the Ki in assay [2] is 0.0398 to 0.316 nM.

Turning to `FC(F)c1cccc(-c2n[nH]cc2-c2ccc3ncc(N4CCCNCC4)cc3n2)n1` [Compound 446, 7-(1,4-diazepan-1-yl)-2-[3-[6-(difluoromethyl)-2-pyridyl]-1H-pyrazol-4-yl]-1,5-naphthyridine], the IC50 in assay [1] (setting [3]) was 25.1 to 158 nM. In addition, the Ki in assay [2] was 0.0398 to 0.316 nM.

Take `Cc1cccc(-c2n[nH]cc2-c2ccc3ncc(NCC(=O)N4CCOCC4)cc3n2)n1` [Compound 90, 2-[[6-[3-(6-methyl-2-pyridyl)-1H-pyrazol-4-yl]-1,5-naphthyridin-3-yl]amino]-1-morpholino-ethanone]: the IC50 in assay [1] (setting [3]) was 25.1 to 158 nM. In addition, the Ki in assay [2] was 0.398 to 3.16 nM.

Regarding `Cc1cccc(-c2[nH]cnc2-c2ccc3ncc(-c4nccc(C(=O)OCC5CNC5)n4)cc3c2)n1` [Compound 1098, azetidin-3-ylmethyl 2-[6-[5-(6-methyl-2-pyridyl)-1H-imidazol-4-yl]-3-quinolyl]pyrimidine-4-carboxylate], the IC50 in assay [1] (setting [3]) was 200 to 1260 nM. Besides, the Ki in assay [2] is 0.0398 to 0.316 nM.

For `Cc1cccc(-c2[nH]cnc2-c2ccc3ncc(-c4ccc(C(=O)OCC5CNC5)s4)cc3c2)n1` [Compound 1007, azetidin-3-ylmethyl 5-(6-(5-(6-methylpyridin-2-yl)-1H-imidazol-4-yl)quinolin-3-yl)thiophene-2-carboxylate], in assay [1] (setting [3]), the IC50 is 25.1 to 158 nM. In addition, the Ki in assay [2] is 0.0398 to 0.316 nM.

For the compound `Cc1cccc(-c2[nH]ncc2-c2ccc3ncc(OC(=O)[C@H]4C[C@@H](N)C4)cc3c2)n1` [Compound 1032, 6-(5-(6-methylpyridin-2-yl)-1H-pyrazol-4-yl)quinolin-3-yl (1s,3s)-3-aminocyclobutane-1-carboxylate], in assay [1] (BEAS-2B), the IC50 was below 20 nM. Also, in assay [2], the Ki is 0.0398 to 0.316 nM.

Take `Cc1cccc(-c2nc3ccccn3c2-c2ccc3ncc(-c4nc5n(n4)CCNC5)cc3n2)n1` [Compound 415, 2-[2-(6-methyl-2-pyridyl)imidazo[1,2-a]pyridin-3-yl]-7-(5,6,7,8-tetrahydro-[1,2,4]triazolo[1,5-a]pyrazin-2-yl)-1,5-naphthyridine]: the IC50 in assay [1] (setting [3]) was below 20 nM. In addition, in assay [2], the Ki was 0.0398 to 0.316 nM.

Consider `Cc1cccc(-c2[nH]cnc2-c2ccc3ncc(-c4nccc(C(=O)O[C@@H]5CCNC5)n4)cc3c2)n1` [Compound 1093, [(3R)-pyrrolidin-3-yl] 2-[6-[5-(6-methyl-2-pyridyl)-1H-imidazol-4-yl]-3-quinolyl]pyrimidine-4-carboxylate], for which the IC50 in assay [1] (setting [3]) is 200 to 1260 nM. For the same compound, in assay [2], the Ki is 0.398 to 3.16 nM.

As to `Cc1cccc(-c2[nH]cnc2-c2ccc3nccc(C(=O)O[C@H]4CC[C@](C)(N)CC4)c3c2)n1` [Compound 1209, (4-amino-4-methyl-cyclohexyl) 6-[5-(6-methyl-2-pyridyl)-1H-imidazol-4-yl]quinoline-4-carboxylate], the IC50 in assay [1] (setting [3]) was 25.1 to 158 nM. Further, the Ki in assay [2] is 0.398 to 3.16 nM.

Turning to `Cc1cccc(-c2[nH]cnc2-c2ccc3ncc(-c4cc(C(=O)OC5CCNCC5)cs4)cc3c2)n1` [Compound 1139, 4-piperidyl 5-[6-[5-(6-methyl-2-pyridyl)-1H-imidazol-4-yl]-3-quinolyl]thiophene-3-carboxylate], in assay [1] (setting [3]), the IC50 was 25.1 to 158 nM. Further, in assay [2], the Ki was below 0.0316 nM.

Regarding `Cc1nc(-c2n[nH]cc2-c2ccc3ncc(-c4cnn(C[C@H]5C[C@@H](N)C5)c4)cc3n2)ccc1F` [Compound 517, 3-[[4-[6-[3-(5-fluoro-6-methyl-2-pyridyl)-1H-pyrazol-4-yl]-1,5-naphthyridin-3-yl]pyrazol-1-yl]methyl]cyclobutanamine], in assay [1] (setting [3]), the IC50 is 25.1 to 158 nM. Besides, in assay [2], the Ki was 0.0398 to 0.316 nM.

As for `Cc1cccc(-c2[nH]cnc2-c2ccc3ncc(Nc4ccc(N5CCN(Cc6ccccc6)CC5)cn4)cc3c2)n1` [Compound 510, N-[5-(4-benzylpiperazin-1-yl)-2-pyridyl]-6-[5-(6-methyl-2-pyridyl)-1H-imidazol-4-yl]quinolin-3-amine], the IC50 in assay [1] (setting [3]) was 25.1 to 158 nM. Also, in assay [2], the Ki was 0.398 to 3.16 nM.

With `Cc1cccc(-c2[nH]cnc2-c2ccc3ncc(-c4ccc(C(=O)O[C@H]5CCN(C)C5)s4)cc3c2)n1` [Compound 1008, (S)-1-methylpyrrolidin-3-yl 5-(6-(5-(6-methylpyridin-2-yl)-1H-imidazol-4-yl)quinolin-3-yl)thiophene-2-carboxylate], the IC50 in assay [1] (setting [3]) was 25.1 to 158 nM. Further, the Ki in assay [2] was 0.0398 to 0.316 nM.

As to `Cc1cccc(-c2n[nH]cc2-c2ccc3ncc(N4CCC5(CCN(C(=O)OCc6ccccc6)C5)C4)cc3n2)n1` (centres unmarked) [Compound 124, benzyl 7-[6-[3-(6-methyl-2-pyridyl)-1H-pyrazol-4-yl]-1,5-naphthyridin-3-yl]-2,7-diazaspiro[4.4]nonane-2-carboxylate], the IC50 in assay [1] (setting [3]) was 25.1 to 158 nM. Also, in assay [2], the Ki is 0.0398 to 0.316 nM.

Turning to `Cc1cccc(-c2n[nH]cc2-c2ccc3ncc(N4CCC[C@H]4CO)cc3n2)n1` [Compound 52, [(2S)-1-[6-[3-(6-methyl-2-pyridyl)-1H-pyrazol-4-yl]-1,5-naphthyridin-3-yl]pyrrolidin-2-yl]methanol], the IC50 in assay [1] (setting [3]) was 25.1 to 158 nM. The Ki in assay [2] was 0.0398 to 0.316 nM.

In the case of `Cc1cccc(-c2n[nH]cc2-c2ccc3ncc(-c4cccs4)cc3n2)n1` [Compound 80, 2-[3-(6-methyl-2-pyridyl)-1H-pyrazol-4-yl]-7-(2-thienyl)-1,5-naphthyridine], the IC50 in assay [1] (setting [3]) is 25.1 to 158 nM. Moreover, in assay [2], the Ki was 0.0398 to 0.316 nM.

In the case of `CCOC(=O)c1c(-c2cccc(F)c2)cnc2ccc(-c3c[nH]nc3-c3cccc(C)n3)nc12` [Compound 859, ethyl 3-(3-fluorophenyl)-6-[3-(6-methyl-2-pyridyl)-1H-pyrazol-4-yl]-1,5-naphthyridine-4-carboxylate], in assay [1] (setting [3]), the IC50 is 200 to 1260 nM. In assay [2], the Ki was 0.398 to 3.16 nM.

With `Cc1cccc(-c2[nH]ncc2-c2ccc3ncc(C(=O)NN)cc3n2)n1` [Compound 247, 6-[5-(6-methyl-2-pyridyl)-1H-pyrazol-4-yl]-1,5-naphthyridine-3-carbohydrazide], the IC50 in assay [1] (setting [3]) is 25.1 to 158 nM. Also, the Ki in assay [2] was 0.0398 to 0.316 nM.

Regarding `Cc1cccc(-c2[nH]cnc2-c2ccc3ncc(-c4ccc(C(=O)O[C@H]5CCN(C)C5)nc4)cc3c2)n1` [Compound 722, [(3S)-1-methylpyrrolidin-3-yl] 5-[6-[5-(6-methyl-2-pyridyl)-1H-imidazol-4-yl]-3-quinolyl]pyridine-2-carboxylate], the IC50 in assay [1] (setting [3]) is below 20 nM. Further, in assay [2], the Ki was 0.0398 to 0.316 nM.

Consider `Cc1cccc(-c2n[nH]cc2-c2ccc3nccc(N4CCNCC4)c3c2)n1` [Compound 868, 6-[3-(6-methyl-2-pyridyl)-1H-pyrazol-4-yl]-4-piperazin-1-yl-quinoline], for which the IC50 in assay [1] (setting [3]) was 25.1 to 158 nM. In assay [2], the Ki was 0.398 to 3.16 nM.

As for `Cc1cccc(-c2[nH]cnc2-c2ccc3ncc(Nc4nc(CN5CCNCC5)cs4)cc3c2)n1` [Compound 164, N-[6-[5-(6-methyl-2-pyridyl)-1H-imidazol-4-yl]-3-quinolyl]-4-(piperazin-1-ylmethyl)thiazol-2-amine], in assay [1] (setting [3]), the IC50 was 200 to 1260 nM. For the same compound, in assay [2], the Ki was 0.0398 to 0.316 nM.

On to `Cc1cccc(-c2[nH]cnc2-c2ccc3ncc(NCCNC4CCCNC4)cc3c2)n1` (racemic) [Compound 217, N-[6-[5-(6-methyl-2-pyridyl)-1H-imidazol-4-yl]-3-quinolyl]-N′-[rac-(3R)-3-piperidyl]ethane-1,2-diamine], for which the IC50 in assay [1] (setting [3]) was 200 to 1260 nM. Further, the Ki in assay [2] was 0.0398 to 0.316 nM.

As to `Cc1cccc(-c2[nH]cnc2-c2ccc3ncc(-c4cn[nH]c4)cc3n2)n1` [Compound 644, 2-(5-(6-methylpyridin-2-yl)-1H-imidazol-4-yl)-7-(1H-pyrazol-4-yl)-1,5-naphthyridine], in assay [1] (setting [3]), the IC50 was below 20 nM. Further, the Ki in assay [2] is below 0.0316 nM.
